We go through 23 compounds from patent US9062028B2, “Bicyclic nitrogen containing heteroaryl TGR5 receptor modulators” (Bristol-Myers Squibb Company, priority 2011, dated 2015).

Where a name gives a salt, the structure may show the parent alone.

For orientation: EC50 means the concentration that produces a half-maximal response.

For this assay, the target named is T1, recombinant human TGR5 (Homo sapiens, UniProt Q8TDU6).
T1 construct: expressed in transfected cells
T1 sequence (Q8TDU6 1-330): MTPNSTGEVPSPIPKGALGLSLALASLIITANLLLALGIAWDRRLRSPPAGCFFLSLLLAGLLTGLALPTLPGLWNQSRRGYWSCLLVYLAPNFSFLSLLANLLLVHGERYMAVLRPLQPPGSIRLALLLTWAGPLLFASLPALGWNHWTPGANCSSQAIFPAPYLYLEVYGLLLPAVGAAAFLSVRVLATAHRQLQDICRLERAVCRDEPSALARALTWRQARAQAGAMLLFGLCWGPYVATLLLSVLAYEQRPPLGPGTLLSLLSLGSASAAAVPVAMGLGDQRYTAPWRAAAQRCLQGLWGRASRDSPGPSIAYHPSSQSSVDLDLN
Nature of the assay: cAMP assay (cAMP accumulation, HTRF) in CHOK1 cells stably expressing TGR5. The format is cell-based. The conditions noted are these: CHOK1 cells stably expressing human TGR5, 30 minutes at RT, 1% DMSO. The method in brief:
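CHOK1 cells stably expressing TGR5 (text also calls it chimeric human/mouse), 0.4-0.5×10^6 cells/mL in PBS with Ca/Mg and 0.1 mM IBMX, compound 30 min at RT, 1% DMSO. cAMP by HTRF 665/620 interpolated to a standard curve; EC50 from 4-parameter fit as half-maximal increase.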
Background: Changes in cAMP serve as a functional read-out for many G protein-coupled receptors.
With `Cc1cccc(OCCCC(=O)N2CCCc3c(-c4cnn(CC(=O)C(C)(C)CC(=O)O)c4)cccc32)c1C` [Example 493, 5-(4-(1-(4-(2,3-Dimethylphenoxy)butanoyl)-1,2,3,4-tetrahydroquinolin-5-yl)-1H-pyrazol-1-yl)-3,3-dimethyl-4-oxopentanoic acid], the EC50 came out at 4150 nM.
Turning to `Cc1cccc(OCCCC(=O)N2CCCc3c(-c4cnn(Cc5cccc(NC(=O)C(N)C(O)(C(F)(F)F)C(F)(F)F)c5)c4)cccc32)c1C` (centres unmarked) [Example 500, 2-Amino-N-(3-((4-(1-(4-(2,3-dimethylphenoxy)butanoyl)-1,2,3,4-tetrahydroquinolin-5-yl)-1H-pyrazol-1-yl)methyl)phenyl)-4,4,4-trifluoro-3-hydroxy-3-(trifluoromethyl) butanamide], the EC50 is 195 nM.
Consider `Cc1cccc(OCCCC(=O)N2CCOc3c(-c4cnn(Cc5cccc(S(=O)(=O)N[C@@H](CCC[N+](C)(C)C)C(=O)O)c5)c4)cccc32)c1C` [Example 505, (S)-4-Carboxy-4-(3-((4-(4-(4-(2,3-dimethylphenoxy)butanoyl)-3,4-dihydro-2H-benzo [b][1,4]oxazin-8-yl)-1H-pyrazol-1-yl)methyl)phenyl-sulfonamido)-N,N, N-trimethylbutan-1-aminium, TFA salt], for which the EC50 turned out to be 1730 nM.
Consider `Cc1c(Cl)cccc1OCCCC(=O)N1CCCOc2c(-c3cnn(Cc4cccc(NS(=O)(=O)c5cccc(C(=O)O)c5)c4)c3)cccc21` [Example 506, 3-(N-(3-((4-(5-(4-(3-Chloro-2-methylphenoxy)butanoyl)-2,3,4,5-tetrahydrobenzo [b][1,4]oxazepin-9-yl)-1H-pyrazol-1-yl)methyl)phenyl)sulfamoyl) benzoic acid], for which the EC50 was 1610 nM.
Turning to `Cc1cccc(OCCCC(=O)N2CCCc3c(-c4cnn(Cc5cccc(S(=O)(=O)N[C@@H](CCC[N+](C)(C)C)C(=O)O)c5)c4)cccc32)c1C` [Example 507, (S)-4-Carboxy-4-(3-((4-(1-(4-(2,3-dimethylphenoxy)butanoyl)-1,2,3,4-tetrahydroquinolin-5-yl)-1H-pyrazol-1-yl)methyl)phenyl-sulfonamido)-N,N, N-trimethylbutan-1-aminium], the EC50 amounted to 2110 nM.
Turning to `Cc1c(Cl)cccc1OCCCC(=O)N1CCCOc2c(-c3cnn(Cc4cccc(NC(=O)NCC(=O)O)c4)c3)cccc21` [Example 521, 2-(3-(3-((4-(5-(4-(3-Chloro-2-methylphenoxy)butanoyl)-2,3,4,5-tetrahydrobenzo[b] [1,4]oxazepin-9-yl)-1H-pyrazol-1-yl)methyl)phenyl)ureido)acetic acid], the EC50 was found to be 176 nM.
The figure for `Cc1cccc(OCCCC(=O)N2CCCOc3c(-c4cnn(Cc5cccc(N(C)C(=O)NCS(=O)(=O)O)c5)c4)cccc32)c1C` [Example 526, (3-(3-((4-(5-(4-(2,3-Dimethylphenoxy)butanoyl)-2,3,4,5-tetrahydrobenzo [b][1,4]oxazepin-9-yl)-1H-pyrazol-1-yl)methyl)phenyl)-3-methylureido) methanesulfonic acid] is 1500 nM.
For the compound `Cc1c(Cl)cccc1OCCOC(=O)N1C[C@@H]2C[C@@H]2c2c(-c3cnn(Cc4cccc(NC(=O)NCS(=O)(=O)O)c4)c3)cccc21` [Example 527, (3-(3-((4-((1aR,7bS)-3-((2-(3-Chloro-2-methyl-phenoxy)ethoxy)carbonyl)-1a,2,3,7b-tetrahydro-1H-cyclopropa[c]quinolin-7-yl)-1H-pyrazol-1-yl)methyl)phenyl)ureido) methanesulfonic acid], the half-maximal effective concentration (EC50) stood at 184 nM.
With `Cc1c(Cl)cccc1OCCCC(=O)N1CCCc2c(-c3cnn(Cc4cccc(NC(=O)N[C@H](CCC(=O)O)C(=O)O)c4)c3)cccc21` [Example 534, (R)-2-(3-(3-((4-(1-(4-(3-Chloro-2-methylphenoxy)butanoyl)-1,2,3,4-tetra-hydroquinolin-5-yl)-1H-pyrazol-1-yl)methyl)phenyl)ureido) pentanedioic acid], the EC50 came to 192 nM.
As to `Cc1cccc(OCCCC(=O)N(C)c2cccc(-c3cnn(Cc4cccc(C(=O)NCCC(=O)O)c4)c3)c2)c1C` [Example 552, 3-(3-((4-(3-(4-(2,3-Dimethylphenoxy)-N-methylbutanamido)phenyl)-1H-pyrazol-1-yl)methyl)benzamido)propanoic acid], the half-maximal effective concentration (EC50) is 2380 nM.
As to `Cc1c(Cl)cccc1OCCCC(=O)N1CCSc2c(-c3cnn(Cc4cccc(C(=O)NCCS(=O)(=O)O)c4)c3)cccc21` [Example 564, 2-(3-((4-(4-(4-(3-Chloro-2-methylphenoxy)butanoyl)-3,4-dihydro-2H-benzo[b][1,4]thiazin-8-yl)-1H-pyrazol-1-yl)methyl)benzamido) ethanesulfonic acid], the EC50 was found to be 49 nM.
With `Cc1c(Cl)cccc1OCCCC(=O)N1CCSc2c(-c3cnn(Cc4cccc(C(=O)NCS(=O)(=O)O)c4)c3)cccc21` [Example 565, (3-((4-(4-(4-(3-Chloro-2-methylphenoxy)butanoyl)-3,4-dihydro-2H-benzo[b][1,4]thiazin-8-yl)-1H-pyrazol-1-yl)methyl)benzamido) methanesulfonic acid], the EC50 was found to be 48 nM.
Turning to `Cc1c(Cl)cccc1OCCCC(=O)N1CCSc2c(-c3cnn(Cc4cccc(C(=O)NCC(=O)O)c4)c3)cccc21` [Example 566, 2-(3-((4-(4-(4-(3-Chloro-2-methylphenoxy)butanoyl)-3,4-dihydro-2H-benzo[b][1,4]thiazin-8-yl)-1H-pyrazol-1-yl)methyl)benzamido)acetic acid], the concentration giving a half-maximal response (EC50) was found to be 35 nM.
As for `Cc1c(Cl)cccc1OCCCC(=O)N1CCSc2c(-c3cnn(Cc4c(F)cc(C(=O)NCCS(=O)(=O)O)cc4Cl)c3)cccc21` [Example 574, 2-(3-Chloro-4-((4-(4-(4-(3-chloro-2-methylphenoxy)butanoyl)-3,4-dihydro-2H-benzo[b][1,4]thiazin-8-yl)-1H-pyrazol-1-yl)methyl)-5-fluorobenzamido) ethanesulfonic acid], the EC50 worked out at 23 nM.
For `Cc1cccc(OCCCC(=O)N2CCSc3c(-c4cnn(Cc5c(F)cc(C(=O)NCCC(=O)O)cc5Cl)c4)cccc32)c1C` [Example 575, 3-(3-Chloro-4-((4-(4-(4-(2,3-dimethylphenoxy)butanoyl)-3,4-dihydro-2H-benzo[b][1,4]thiazin-8-yl)-1H-pyrazol-1-yl)methyl)-5-fluorobenzamido) propanoic acid], the EC50 amounted to 49 nM.
As to `Cc1cccc(OCCCC(=O)N2CCSc3c(-c4cnn(Cc5c(F)cc(C(=O)NCC(=O)O)cc5Cl)c4)cccc32)c1C` [Example 576, 2-(3-Chloro-4-((4-(4-(4-(2,3-dimethylphenoxy)butanoyl)-3,4-dihydro-2H-benzo[b][1,4]thiazin-8-yl)-1H-pyrazol-1-yl)methyl)-5-fluorobenzamido) acetic acid], the EC50 was determined as 48 nM.
For `Cc1c(Cl)cccc1OCCCC(=O)N1CCSc2c(-c3cnn(Cc4c(F)cc(C(=O)NCCC(=O)O)cc4Cl)c3)cccc21` [Example 577, 3-(3-Chloro-4-((4-(4-(4-(3-chloro-2-methylphenoxy)butanoyl)-3,4-dihydro-2H-benzo[b][1,4]thiazin-8-yl)-1H-pyrazol-1-yl)methyl)-5-fluorobenzamido)propanoic acid], the EC50 is 31 nM.
The figure for `Cc1cccc(OCCCC(=O)N2CCSc3c(-c4cnn(Cc5c(F)cc(C(=O)NCS(=O)(=O)O)cc5Cl)c4)cccc32)c1C` [Example 578, (3-Chloro-4-((4-(4-(4-(2,3-dimethylphenoxy)butanoyl)-3,4-dihydro-2H-benzo[b][1,4]thiazin-8-yl)-1H-pyrazol-1-yl)methyl)-5-fluorobenzamido) methanesulfonic acid] is 45 nM; for `Cc1c(Cl)cccc1OCCCC(=O)N1CCSc2c(-c3cnn(Cc4c(F)cc(C(=O)NCC(=O)O)cc4Cl)c3)cccc21` [Example 581, 2-(3-Chloro-4-((4-(4-(4-(3-chloro-2-methylphenoxy)butanoyl)-3,4-dihydro-2H-benzo[b][1,4]thaizin-8-yl)-1H-pyrazol-1-yl)methyl)-5-fluorobenzamido)acetic acid] it is 38 nM; for `Cc1c(Cl)cccc1OCCCC(=O)N1CCSc2c(-c3cnn(Cc4c(F)cc(C(=O)NCCC[C@H](N)C(=O)O)cc4Cl)c3)cccc21` [Example 583, (S)-2-Amino-5-(3-chloro-4-((4-(4-(4-(3-chloro-2-methylphenoxy)butanoyl)-3,4-dihydro-2H-benzo[b][1,4]thiazin-8-yl)-1H-pyrazol-1-yl)methyl)-5-fluorobenzamido) pentanoic acid] it is 43 nM.
For `Cc1c(Cl)cccc1OCCCC(=O)N1CCSc2c(-c3cnn(Cc4cccc(C(=O)NCCO)c4)c3)cccc21` [Example 592, 3-((4-(4-(4-(3-Chloro-2-methylphenoxy)butanoyl)-3,4-dihydro-2H-benzo[b][1,4]thiazin-8-yl)-1H-pyrazol-1-yl)methyl)-N-(2-hydroxyethyl) benzamide], the EC50 is 30 nM.
With `Cc1c(Cl)cccc1OCCCC(=O)N1CCSc2c(-c3cnn(Cc4cccc(C(=O)NCC(C)(C)O)c4)c3)cccc21` [Example 593, 3-((4-(4-(4-(3-Chloro-2-methylphenoxy)butanoyl)-3,4-dihydro-2H-benzo[b][1,4]thiazin-8-yl)-1H-pyrazol-1-yl)methyl)-N-(2-hydroxy-2-methylpropyl)benzamide], the EC50 was 42 nM.
Turning to `Cc1cccc(OCCOC(=O)N2CCSc3c(-c4cnn(Cc5cccc(C(=O)NCCS(=O)(=O)O)c5)c4)cccc32)c1C` [Example 597, 2-(3-((4-(4-((2-(2,3-Dimethylphenoxy)ethoxy)carbonyl)-3,4-dihydro-2H-benzo[b][1,4]thiazin-8-yl)-1H-pyrazol-1-yl)methyl)benzamido)ethanesulfonic acid], the EC50 worked out at 173 nM.
